# Results as given in US8357717B2, “Spiro group-containing amide compounds having bradykinin 1 receptor (B1R) activity” (Gruenenthal GmbH, priority 2009, dated 2013).
# Biological target: T1, B1R receptor of the rat (rB1R) (Rattus norvegicus, UniProt P97583)
# T1 construct: expressed in transfected cells; host or cells: CHO K1 cells, stably transfected
# T1 sequence (P97583 1-337): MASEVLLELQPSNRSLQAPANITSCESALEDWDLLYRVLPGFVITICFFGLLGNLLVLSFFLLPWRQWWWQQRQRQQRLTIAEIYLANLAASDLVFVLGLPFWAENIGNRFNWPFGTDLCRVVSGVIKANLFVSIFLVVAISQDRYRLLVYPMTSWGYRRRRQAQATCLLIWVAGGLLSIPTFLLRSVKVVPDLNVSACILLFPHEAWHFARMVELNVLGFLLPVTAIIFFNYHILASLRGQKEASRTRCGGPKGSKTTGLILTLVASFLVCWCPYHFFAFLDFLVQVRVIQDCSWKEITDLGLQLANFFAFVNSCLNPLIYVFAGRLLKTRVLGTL
# Test: FLIPR Ca2+ functional study on bradykinin receptor 1, rB1R cells (CHO K1)
# Type: cell-based
# Settings: 10 μM test substance; CHO K1 cells with rat B1R; agonist Des-Arg9-bradykinin at EC80; read-out: B1R antagonism, rat [10 μM] % inhibition
# Method: (§1) The agonistic or antagonistic activity of substances can be quantified on the bradykinin receptor 1 (B1R) of the species human and rat using ectopically expressing cell lines (CHO K1 cells) and with the aid of a Ca^2+-sensitive dye (Fluo-4) using a fluorescent imaging plate reader (FLIPR). The indication in % activation is based on the Ca^2+ signal after addition of Lys-Des-Arg^9-bradykinin (0.5 nM) or Des-Arg^9-bradykinin (100 nM). Antagonists lead to suppression of the Ca^2+ influx after the addition of the agonist. % Inhibition compared with the maximum achievable inhibition is indicated.
# (§2) The agonistic or antagonistic activity of substances can be determined on the bradykinin receptor 1 (B1R) of the species human and rat using the following assay. According to this assay, the Ca^2+ influx through the channel is quantified with the aid of a Ca^2+-sensitive dye (Fluo-4 type, Molecular Probes Europe BV, Leiden, Netherlands) using a Fluorescent Imaging Plate Reader (FLIPR, Molecular Devices, Sunnyvale, USA).
# (§3) Chinese hamster ovary cells (CHO K1 cells) which have been stably transfected with the human B1R gene (hB1R cells) or with the B1R gene of the rat (rB1R cells) are used. For functional studies, the cells are plated out on black 96-well plates having a clear base (BD Biosciences, Heidelberg, Germany or Greiner, Frickenhausen, Germany) in a density of 20,000-35,000 cells/well. The cells are left overnight at 37° C. and with 5% CO2 in culture medium (hB1R cells: Nutrient Mixture Ham's F12, Gibco Invitrogen GmbH, Karlsruhe, Germany or DMEM, Sigma-Aldrich, Taufkirchen, Germany; rB1R cells: D-MEM/F12, Gibco Invitrogen GmbH, Karlsruhe, Germany), with 10 vol. % FBS (fetal bovine serum, Gibco Invitrogen GmbH, Karlsruhe, Germany or PAN Biotech GmbH, Aidenbach, Germany). On the following day, the cells are loaded for 60 minutes at 37° C. with 2.13 μM Fluo-4 (Molecular Probes Europe BV, Leiden, Netherlands) in HBSS buffer (Hank's buffered saline solution, Gibco Invitrogen GmbH, Karlsruhe, Germany) […] (Sigma-Aldrich, Taufkirchen, Germany) and 10 mM HEPES (Sigma-Aldrich, Taufkirchen, Germany). The plates are then washed twice with HBSS buffer, and HBSS buffer additionally containing 0.1% BSA (bovine serum albumin; Sigma-Aldrich, Taufkirchen, Germany), 5.6 mM glucose and 0.05% gelatin (Merck KGaA, Darmstadt, Germany) is added to the plates. After incubation for a further 20 minutes at room temperature, the plates are inserted into the FLIPR for Ca^2+ measurement. Alternatively, washing is carried out with buffer A (15 mM HEPES, 80 mM NaCl, 5 mM KCl, 1.2 mM CaCl2, 0.7 mM MgSO4, 2 g/l glucose, 2.5 mM probenecid) followed by loading with buffer A with added 2.5 μM Fluo-4 and 0.025% Pluronic F127 (Sigma-Aldrich, Taufkirchen, Germany). The cells are then washed twice with buffer A and incubated for 30 minutes at room temperature with buffer A additionally containing 0.05% BSA and 0.05% gelatin and are then inserted into the FLIPR for Ca^2+ measurement. The Ca^2+-dependent fluorescence is measured before and after the addition of substances (λex=488 nm, λem=540 nm). Quantification is carried out by measuring the highest fluorescence intensity (FC, fluorescence counts) over time.
# (§4) The FLIPR protocol consists of two substance additions. Test substances (10 μM) are first pipetted onto the cells and the Ca^2+ influx is compared with the control (hB1R: Lys-Des-Arg^9-bradykinin >=50 nM; rB1R: Des-Arg^9-bradykinin 10 μM). This gives the activation in %, based on the Ca^2+ signal after addition of Lys-Des-Arg^9-bradykinin (>=50 nM) or Des-Arg^9-bradykinin (10 μM). After 10-20 minutes' incubation, Lys-Des-Arg^9-bradykinin (hB1R) or Des-Arg^9-bradykinin (rB1R) is applied in the concentration of the EC80, and the influx of Ca^2+ is likewise determined. Antagonists lead to suppression of the Ca^2+ influx. The % inhibition compared with the maximum achievable inhibition is calculated. […]
row,SMILES,inhibition at 10 µM [%]
1,"COc1cc(C)c(S(=O)(=O)N2CCc3ccc(C(=O)N4CCC5(CC4)CCN(c4ccncc4)CC5)cc3C2)c(C)c1 [Compound G-04, (2-(4-Methoxy-2,6-dimethylphenylsulfonyl)-1,2,3,4-tetrahydroisoquinolin-7-yl)(9-(pyridin-4-yl)-3,9-diazaspiro[5.5]undecan-3-yl)methanone]",99
2,"COc1cc(C)c(S(=O)(=O)N2CCCc3ccc(CC(=O)N4CCC5(CC4)CCN(c4ccncc4)C5)cc32)c(C)c1 [Compound G-09, 2-(1-(4-Methoxy-2,6-dimethylphenylsulfonyl)-1,2,3,4-tetrahydroquinolin-7-yl)-1-(2-(pyridin-4-yl)-2,8-diazaspiro[4.5]decan-8-yl)ethanone]",96
3,"COc1cc(C)c(S(=O)(=O)N2CCc3ccc(C(=O)N4CCC5(CC4)CCN(Cc4ccc(F)cc4)C5=O)cc32)c(C)c1 [G_CC-006, 2-(4-Fluorobenzyl)-8-(1-(4-methoxy-2,6-dimethylphenylsulfonyl)indoline-6-carbonyl)-2,8-diazaspiro[4.5]decan-1-one]",71
4,"COc1cc(C)c(S(=O)(=O)N2CCc3ccc(C(=O)N4CCC5(CCN(Cc6ccccc6)C5)C4)cc32)c(C)c1 (stereo not shown) [G_CC-007, (7-Benzyl-2,7-diazaspiro[4.4]nonan-2-yl)(1-(4-methoxy-2,6-dimethylphenylsulfonyl)indoline-6-yl)methanone]",59
5,"COc1cc(C)c(S(=O)(=O)N2CCc3ccc(C(=O)N4CCC5(CC4)CCN(c4ccncc4)CC5)cc32)c(C)c1 [G_CC-008, (1-(4-Methoxy-2,6-dimethylphenylsulfonyl)indolin-6-yl)(9-(pyridin-4-yl)-3,9-diazaspiro[5.5]undecan-3-yl)methanone]",100
6,"O=C(c1ccc2c(c1)N(C(=O)c1ccccc1Cl)CC2)N1CCC2(CC1)CCN(c1ccncc1)CC2 [G_CC-009, (1-(2-Chlorobenzoyl)indolin-6-yl)(9-(pyridin-4-yl)-3,9-diazaspiro[5.5]undecan-3-yl)methanone]",78
7,"O=C(c1ccc2c(c1)CN(C(=O)c1ccccc1Cl)C2)N1CCC2(CC1)CCN(Cc1ccc(F)cc1)C2=O [G_CC-018, 8-(2-(2-Chlorobenzoyl)isoindoline-5-carbonyl)-2-(4-fluorobenzyl)-2,8-diazaspiro[4.5]decan-1-one]",51
8,"COc1cc(C)c(S(=O)(=O)N2CCCc3ccc(C(=O)N4CCC5(CC4)C(=O)N(C)CC5c4ccc(F)cc4)cc32)c(C)c1 (stereo not shown) [G_CC-025, 4-(4-Fluorophenyl)-8-(1-(4-methoxy-2,6-dimethylphenylsulfonyl)-1,2,3,4-tetrahydroquinoline-7-carbonyl)-2-methyl-2,8-diazaspiro[4.5]decan-1-one]",51
9,"COc1cc(C)c(S(=O)(=O)N2CCCc3ccc(C(=O)N4CCC5(CC4)CCN(Cc4ccccc4)C5=O)cc32)c(C)c1 [G_CC-026, 2-Benzyl-8-(1-(4-methoxy-2,6-dimethylphenylsulfonyl)-1,2,3,4-tetrahydroquinoline-7-carbonyl)-2,8-diazaspiro[4.5]decan-1-one]",58
10,"COc1cc(C)c(S(=O)(=O)N2CCCc3ccc(C(=O)N4CCC5(CCN(Cc6ccccc6)C5)C4)cc32)c(C)c1 (stereo not shown) [G_CC-027, (7-Benzyl-2,7-diazaspiro[4.4]nonan-2-yl)(1-(4-methoxy-2,6-dimethylphenylsulfonyl)-1,2,3,4-tetrahydroquinolin-7-yl)methanone]",58
11,"COc1cc(C)c(S(=O)(=O)N2CCc3ccc(C(=O)N4CCC5(CC4)CCN(Cc4ccc(F)cc4)C5=O)cc3C2)c(C)c1 [G_CC-039, 2-(4-Fluorobenzyl)-8-(2-(4-methoxy-2,6-dimethylphenylsulfonyl)-1,2,3,4-tetrahydroisoquinoline-7-carbonyl)-2,8-diazaspiro[4.5]decan-1-one]",71
12,"COc1cc(C)c(S(=O)(=O)N2CCc3ccc(C(=O)N4CCC5(CC4)CCN(Cc4ccccc4)C5=O)cc3C2)c(C)c1 [G_CC-040, 2-Benzyl-8-(2-(4-methoxy-2,6-dimethylphenylsulfonyl)-1,2,3,4-tetrahydroisoquinoline-7-carbonyl)-2,8-diazaspiro[4.5]decan-1-one]",70

# Next, values leading:
row,inhibition at 10 µM [%],SMILES
1,64,"COc1cc(C)c(S(=O)(=O)N2CCc3ccc(C(=O)N4CCC5(CCN(Cc6ccccc6)C5)C4)cc3C2)c(C)c1 (stereo not shown) [G_CC-041, (7-Benzyl-2,7-diazaspiro[4.4]nonan-2-yl)(2-(4-methoxy-2,6-dimethylphenylsulfonyl)-1,2,3,4-tetrahydroisoquinolin-7-yl)methanone]"
2,74,"COc1cc(C)c(S(=O)(=O)N2CCc3ccc(C(=O)N4CCC5(CC4)C(=O)NCN5c4ccccc4)cc3C2)c(C)c1 [G_CC-043, 8-(2-(4-Methoxy-2,6-dimethylphenylsulfonyl)-1,2,3,4-tetrahydroisoquinoline-7-carbonyl)-1-phenyl-1,3,8-triazaspiro[4.5]decan-4-one]"
3,92,"O=C(c1ccc2c(c1)CN(C(=O)c1ccccc1Cl)CC2)N1CCC2(CC1)CCN(c1ccncc1)CC2 [G_CC-045, (2-(2-Chlorobenzoyl)-1,2,3,4-tetrahydroisoquinolin-7-yl)(9-(pyridin-4-yl)-3,9-diazaspiro[5.5]undecan-3-yl)methanone]"
4,84,"COc1cc(C)c(S(=O)(=O)N2CCCc3ccc(CC(=O)N4CCC5(CC4)CCN(Cc4ccccc4)C5=O)cc32)c(C)c1 [G_CC-053, 2-Benzyl-8-(2-(1-(4-methoxy-2,6-dimethylphenylsulfonyl)-1,2,3,4-tetrahydroquinolin-7-yl)acetyl)-2,8-diazaspiro[4.5]decan-1-one]"
5,71,"COc1cc(C)c(S(=O)(=O)N2CCCc3ccc(CC(=O)N4CCC5(CCN(Cc6ccccc6)C5)C4)cc32)c(C)c1 (stereo not shown) [G_CC-054, 1-(7-Benzyl-2,7-diazaspiro[4.4]nonan-2-yl)-2-(1-(4-methoxy-2,6-dimethylphenylsulfonyl)-1,2,3,4-tetrahydroquinolin-7-yl)ethanone]"

# Biological target: T2, human B1R receptor (hB1R) (Homo sapiens, UniProt P46663)
# T2 construct: expressed in transfected cells; host or cells: CHO K1 cells, stably transfected
# T2 sequence (P46663 1-353): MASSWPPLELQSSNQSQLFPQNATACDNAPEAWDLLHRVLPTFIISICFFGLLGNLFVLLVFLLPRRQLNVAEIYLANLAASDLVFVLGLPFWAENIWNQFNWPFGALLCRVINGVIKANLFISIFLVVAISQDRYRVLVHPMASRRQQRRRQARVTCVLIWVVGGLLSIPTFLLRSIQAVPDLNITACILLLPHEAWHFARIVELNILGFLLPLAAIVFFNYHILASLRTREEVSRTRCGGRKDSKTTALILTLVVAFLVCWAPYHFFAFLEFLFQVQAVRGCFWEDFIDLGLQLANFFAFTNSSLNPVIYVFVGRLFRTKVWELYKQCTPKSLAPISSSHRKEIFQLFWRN
# Test: FLIPR Ca2+ functional study on bradykinin receptor 1, hB1R cells (CHO K1)
# Type: cell-based
# Settings: CHO-K1, 10 μM test substance; CHO K1 cells with human B1R; agonist Lys-Des-Arg9-bradykinin at EC80; read-out: B1R antagonism, human [10 μM] % inhibition
# Method: as §1, §2, §3, §4
row,SMILES,inhibition at 10 µM [%]
1,"COc1cc(C)c(S(=O)(=O)N2CCc3ccc(C(=O)N4CCC5(CC4)CCN(c4ccncc4)CC5)cc3C2)c(C)c1 [Compound G-04, (2-(4-Methoxy-2,6-dimethylphenylsulfonyl)-1,2,3,4-tetrahydroisoquinolin-7-yl)(9-(pyridin-4-yl)-3,9-diazaspiro[5.5]undecan-3-yl)methanone]",97
2,"COc1cc(C)c(S(=O)(=O)N2CCCc3ccc(CC(=O)N4CCC5(CC4)CCN(c4ccncc4)C5)cc32)c(C)c1 [Compound G-09, 2-(1-(4-Methoxy-2,6-dimethylphenylsulfonyl)-1,2,3,4-tetrahydroquinolin-7-yl)-1-(2-(pyridin-4-yl)-2,8-diazaspiro[4.5]decan-8-yl)ethanone]",96
